Reference: patent US20030134863A1, “Preventives/remedies for alzheimer's disease” (priority 2000, published 2003)
“Also recorded” adds a separate entry of the source.

Assays:
blood LH = assay: Suppression of blood LH in castrated monkeys; type: in vivo, cynomolgus monkeys (Macaca fascicularis); conditions: castrated male cynomolgus monkeys
Description: Suppression of blood LH in castrated monkeys
5-(N-Benzyl-N-methylaminomethyl)-1-(2,6-difluorobenzyl)-6-[4-(3-methoxyureido)phenyl]-3-phenythieno[2,3-d]pyrimidine-2,4(1H,3H)-dione hydrochloride was orally administered to castrated male cynomolgus monkeys (Macaca fascicularis), and blood LH was quantified. The male cynomolgus monkeys, used at 4 years 9 months to 6 years 3 months of age at time of experimentation, had been castrated more than 3 months prior to the examination. Test animals [n=3] were given 30 mg/kg (3 ml/kg) of 5-(N-benzyl-N-methylaminomethyl)-1-(2,6-difluorobenzyl)-6-[4-(3-methoxyureido)phenyl]-3-phenylthieno[2,3-d]pyrimidine-2,4(1H,3H)-dione hydrochloride suspended in 0.5% methylcellulose at a final concentration of 1% by oral administration, and control test animals [n=2] were given 3 ml/kg of the 0.5% methylcellulose dispersant alone by oral administration. At 24 hours and immediately before administration and at 2, 4, 6, 8, 24, and 48 hours after administration, blood was collected for heparinized plasma samples via the femoral vein and immediately stored under freezing conditions.
Plasma LH concentrations were determined by a bioassay using mouse testicular cells. The testicular cells were collected from male BALB/c mice (8 to 9 weeks of age) and washed three times with 1 ml of Dulbecco's modified Eagle medium (DMEM-H) containing 20 mM HEPES and 0.2% BSA per testis. After incubation at 37° C. for 1 hour, the cells were passed through a nylon mesh (70 μm) and dispensed at 8×10^5 cells/tube. After the cells were washed twice with 0.4 ml of DMEM-H, 0.4 ml of a DMEM-H solution containing either equine LH (Sigma), as the standard LH, or monkey plasma, finally diluted up to 300 fold, as the test sample, was added, followed by a reaction at 37° C. for 2 hours. The testosterone concentration in the culture supernatant was determined by a radioimmunoassay (CIS Diagnostics), and the LH concentration in the test monkey plasma was calculated from the standard curve for the standard equine LH. […]

LH, FSH concentrations = conditions: patients of Alzheimer's disease, clinical test; cited from earlier work

SMILES | blood LH concentration relative to the value immediately before administration (blood LH; 30 mg/kg oral in 0.5% methylcellulose, in 24 hours after administration, n=3) | blood LH concentration at 48 hours after administration (blood LH; 30 mg/kg oral, 48 hours after administration) | effect on blood LH concentration (in words) (blood LH; 30 mg/kg oral, hydrochloride, 30 mg/kg) | LH, FSH concentrations (LH, FSH concentrations) | progress of Alzheimer's disease (LH, FSH concentrations)
CONC(=O)Nc1ccc(-c2sc3c(c2CN(C)Cc2ccccc2)c(=O)n(-c2ccccc2)c(=O)n3Cc2c(F)cccc2F)cc1.Cl [5-(N-benzyl-N-methylaminomethyl)-1-(2,6-difluorobenzyl)-6-[4-(3-methoxyureido)phenyl]-3-phenylthieno[2,3-d]pyrimidine-2,4(1H,3H)-dione hydrochloride] | ≤ 20% | re-elevation of the blood LH concentration was noted | rapid fall beginning immediately after administration; also recorded: significant decreasing effect on blood LH concentration |  | 
CCNC(=O)[C@@H]1CCCN1C(=O)[C@H](CCCNC(=N)N)NC(=O)[C@H](CC(C)C)NC(=O)[C@@H](CC(C)C)NC(=O)[C@H](Cc1ccc(O)cc1)NC(=O)[C@H](CO)NC(=O)[C@H](Cc1c[nH]c2ccccc12)NC(=O)[C@H](Cc1c[nH]cn1)NC(=O)[C@@H]1CCC(=O)N1 [Leuplin] |  |  |  | lowers the LH, FSH concentrations | inhibits the progress of Alzheimer's disease
